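Abbreviation: GI50, concentration required for 50% inhibition of growth. The concentration for full growth arrest is given as TGI.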
Tests used:
Experiment in all cases: DTP human tumour cell line panel, 384-well format
HCT-116 colon = system: HCT-116 colon
HOP-92 NSCLC = system: HOP-92 NSCLC
A498 renal = system: A498 renal
LOX IMVI melanoma = system: LOX IMVI melanoma
ACHN renal = system: ACHN renal
RPMI-8226 leukemia = system: RPMI-8226 leukemia
SK-MEL-2 melanoma = system: SK-MEL-2 melanoma
SN12C renal = system: SN12C renal
OVCAR-3 ovarian = system: OVCAR-3 ovarian
TK-10 renal = system: TK-10 renal
PC-3 prostate = system: PC-3 prostate
NCI-H522 lung = system: NCI-H522 lung
786-0 renal = system: 786-0 renal
MOLT-4 leukemia = system: MOLT-4 leukemia
RXF 393 renal = system: RXF 393 renal
COLO 205 colon = system: COLO 205 colon
IGROV1 ovarian = system: IGROV1 ovarian
MCF7 breast = system: MCF7 breast
NCI/ADR-RES ovarian = system: NCI/ADR-RES ovarian
UACC-257 melanoma = system: UACC-257 melanoma
EKVX NSCLC = system: EKVX NSCLC
HT29 colon = system: HT29 colon
SNB-75 CNS = system: SNB-75 CNS
NCI-H322M lung = system: NCI-H322M lung
UACC-62 melanoma = system: UACC-62 melanoma
SNB-19 CNS = system: SNB-19 CNS
MALME-3M melanoma = system: MALME-3M melanoma
NCI-H23 lung = system: NCI-H23 lung
HCC-2998 colon = system: HCC-2998 colon
HS 578T breast = system: HS 578T breast
HL-60(TB) leukemia = system: HL-60(TB) leukemia
A549 NSCLC = system: A549 NSCLC
KM12 colon = system: KM12 colon
SF-539 CNS = system: SF-539 CNS
NCI-H460 NSCLC = system: NCI-H460 NSCLC
MDA-MB-231 breast = system: MDA-MB-231 breast
SR leukemia = system: SR leukemia
T-47D breast = system: T-47D breast
OVCAR-4 ovarian = system: OVCAR-4 ovarian
DU-145 prostate = system: DU-145 prostate
BT-549 breast = system: BT-549 breast
SK-MEL-5 melanoma = system: SK-MEL-5 melanoma
UO-31 renal = system: UO-31 renal
U251 glioblastoma = system: U251 glioblastoma
SF-295 CNS = system: SF-295 CNS
MDA-MB-468 breast = system: MDA-MB-468 breast
HCT-15 colon = system: HCT-15 colon
SF-268 CNS = system: SF-268 CNS
K-562 leukemia = system: K-562 leukemia
CAKI-1 renal = system: CAKI-1 renal
SW-620 colon = system: SW-620 colon
M14 melanoma = system: M14 melanoma
HOP-62 NSCLC = system: HOP-62 NSCLC
SK-MEL-28 melanoma = system: SK-MEL-28 melanoma
SK-OV-3 ovarian = system: SK-OV-3 ovarian
MDA-MB-435 melanoma = system: MDA-MB-435 melanoma
NCI-H226 lung = system: NCI-H226 lung
OVCAR-5 ovarian = system: OVCAR-5 ovarian
CCRF-CEM leukemia = system: CCRF-CEM leukemia

For `NCCCCN(Cc1nc2ccccc2[nH]1)[C@H]1CCCc2cccnc21`, the GI50 (HCT-116 colon) was 5.3 µM, the TGI (HCT-116 colon) was 20.5 µM and the GI50 (HOP-92 NSCLC) was 2.7 µM. The TGI (HOP-92 NSCLC) was 13.4 µM, the GI50 (A498 renal) was 14.7 µM and the TGI (A498 renal) was 44.2 µM. It also gave a GI50 (LOX IMVI melanoma) of 9.28 µM, a TGI (LOX IMVI melanoma) of 23 µM and a GI50 (ACHN renal) of 17.3 µM. For the same compound, the TGI (ACHN renal) was 35.9 µM, the GI50 (RPMI-8226 leukemia) was 5.63 µM and the TGI (RPMI-8226 leukemia) was 19.1 µM. For the same compound, the GI50 (SK-MEL-2 melanoma) was 20.3 µM, the TGI (SK-MEL-2 melanoma) was 34.7 µM and the GI50 (SN12C renal) was 9.33 µM. For the same compound, the TGI (SN12C renal) was 52.2 µM, the GI50 (OVCAR-3 ovarian) was 2.2 µM and the TGI (OVCAR-3 ovarian) was 15.9 µM. For the same compound, the GI50 (TK-10 renal) was 10.6 µM, the TGI (TK-10 renal) was 23.6 µM and the GI50 (PC-3 prostate) was 6.25 µM. It also gave a TGI (PC-3 prostate) of 40.8 µM, a GI50 (NCI-H522 lung) of 2.68 µM and a TGI (NCI-H522 lung) of 18.6 µM. The GI50 ([…]-0 renal) was 8.34 µM, the TGI (786-0 renal) was 31.3 µM and the GI50 (MOLT-4 leukemia) was 1.31 µM. The TGI (MOLT-4 leukemia) was 2.84 µM, the GI50 (RXF 393 renal) was 4.56 µM and the TGI (RXF 393 renal) was 21.4 µM. The GI50 (COLO 205 colon) was 2.35 µM, the TGI (COLO 205 colon) was 5.73 µM and the GI50 (IGROV1 ovarian) was 5.7 µM. It also gave a TGI (IGROV1 ovarian) of 19.1 µM, a GI50 (MCF7 breast) of 7.6 µM and a TGI (MCF7 breast) of 25.9 µM. For the same compound, the GI50 (NCI/ADR-RES ovarian) was 16 µM, the TGI (NCI/ADR-RES ovarian) was 31.6 µM and the GI50 (UACC-257 melanoma) was 7.89 µM. The TGI (UACC-257 melanoma) was 20.5 µM, the GI50 (EKVX NSCLC) was 8.83 µM and the TGI (EKVX NSCLC) was 24.5 µM. For the same compound, the GI50 (HT29 colon) was 3.6 µM, the TGI (HT29 colon) was 13.4 µM and the GI50 (SNB-75 CNS) was 4.2 µM. It also gave a TGI (SNB-75 CNS) of 18.1 µM, a GI50 (NCI-H322M lung) of 4.64 µM and a TGI (NCI-H322M lung) of 24.6 µM. It also gave a GI50 (UACC-62 melanoma) of 10.1 µM, a TGI (UACC-62 melanoma) of 22.3 µM and a GI50 (SNB-19 CNS) of 18 µM. The TGI (SNB-19 CNS) was over 100 µM, the GI50 (MALME-3M melanoma) was 11.9 µM and the TGI (MALME-3M melanoma) was 24.3 µM. The GI50 (NCI-H23 lung) was 4.94 µM, the TGI (NCI-H23 lung) was 22.9 µM and the GI50 (HCC-2998 colon) was 4.63 µM. It also gave a TGI (HCC-2998 colon) of 18.4 µM, a GI50 (HS 578T breast) of 4.57 µM and a TGI (HS 578T breast) of 18.4 µM. For the same compound, the GI50 (HL-60(TB) leukemia) was 1.35 µM, the TGI (HL-60(TB) leukemia) was 2.82 µM and the GI50 (A549 NSCLC) was 9.68 µM. For the same compound, the TGI (A549 NSCLC) was 28.4 µM, the GI50 (KM12 colon) was 6.23 µM and the TGI (KM12 colon) was 33.8 µM. For the same compound, the GI50 (SF-539 CNS) was 9.07 µM, the TGI (SF-539 CNS) was 21.3 µM and the GI50 (NCI-H460 NSCLC) was 4.47 µM. The TGI (NCI-H460 NSCLC) was 18.1 µM, the GI50 (MDA-MB-231 breast) was 4.42 µM and the TGI (MDA-MB-231 breast) was 23.6 µM. For the same compound, the GI50 (SR leukemia) was 1.3 µM, the TGI (SR leukemia) was 2.59 µM and the GI50 (T-47D breast) was 12.7 µM. It also gave a TGI (T-47D breast) of 32.1 µM, a GI50 (OVCAR-4 ovarian) of 4.66 µM and a TGI (OVCAR-4 ovarian) of 26.2 µM. It also gave a GI50 (DU-145 prostate) of 7.23 µM, a TGI (DU-145 prostate) of over 100 µM and a GI50 (BT-549 breast) of 7.45 µM. For the same compound, the TGI (BT-549 breast) was 28.5 µM, the GI50 (SK-MEL-5 melanoma) was 2.62 µM and the TGI (SK-MEL-5 melanoma) was 15.9 µM. It also gave a GI50 (UO-31 renal) of 13.4 µM, a TGI (UO-31 renal) of 29.1 µM and a GI50 (U251 glioblastoma) of 6.5 µM. The TGI (U251 glioblastoma) was 25.9 µM, the GI50 (SF-295 CNS) was 8.81 µM and the TGI (SF-295 CNS) was 22.1 µM. It also gave a GI50 (MDA-MB-468 breast) of 2.81 µM, a TGI (MDA-MB-468 breast) of 8.14 µM and a GI50 (HCT-15 colon) of 13.9 µM. For the same compound, the TGI (HCT-15 colon) was 32.2 µM, the GI50 (SF-268 CNS) was 5.51 µM and the TGI (SF-268 CNS) was 35.1 µM. For the same compound, the GI50 (K-562 leukemia) was 10.2 µM, the TGI (K-562 leukemia) was 22.5 µM and the GI50 (CAKI-1 renal) was 7.89 µM. For the same compound, the TGI (CAKI-1 renal) was 22.5 µM, the GI50 (SW-620 colon) was 10.4 µM and the TGI (SW-620 colon) was 34.1 µM. It also gave a GI50 (M14 melanoma) of 5.75 µM, a TGI (M14 melanoma) of 18.4 µM and a GI50 (HOP-62 NSCLC) of 3.94 µM. It also gave a TGI (HOP-62 NSCLC) of 19 µM, a GI50 (SK-MEL-28 melanoma) of 11.4 µM and a TGI (SK-MEL-28 melanoma) of 24.3 µM. For the same compound, the GI50 (SK-OV-3 ovarian) was 9.63 µM, the TGI (SK-OV-3 ovarian) was 40.4 µM and the GI50 (MDA-MB-435 melanoma) was 7.39 µM. The TGI (MDA-MB-435 melanoma) was 23.3 µM, the GI50 (NCI-H226 lung) was 10.4 µM and the TGI (NCI-H226 lung) was 23.5 µM. It also gave a GI50 (OVCAR-5 ovarian) of 5.13 µM, a TGI (OVCAR-5 ovarian) of 28.2 µM and a GI50 (CCRF-CEM leukemia) of 5.43 µM. The TGI (CCRF-CEM leukemia) was 18.5 µM.
